Source: PMC12771125, “Compounds Reducing Human Sperm Motility as Potential Nonhormonal Contraceptives Identified Using a High-Throughput Phenotypic Screening Platform” (ACS Omega, 2025)
In brackets after ≈: the same amount, converted by molar mass. Where two headings read alike, the source gives them in different places.

Assays:
human sperm = assay: Reduction of sperm motility (RSM) high-throughput phenotypic assay; assay type: cell-based; conditions: for EC50: Homo sapiens, reduction of progressive sperm motility relative to control
Experimental: Using our previously established phenotypic human sperm motility screening platform, we screened a large subset (62,621 compounds) of one of our in-house diversity libraries (National Phenotypic Screening Centre (NPSC) Diversity Set) (Figure A,B). Briefly, human sperm are collected, isolated from semen, distributed into 384-well plates with test compounds, time-lapse images of sperm movement are recorded using a high-content imager, and progressive motility parameters are calculated using custom data analysis software. Sperm motility is complicated, and the mechanisms underpinning its regulation are not fully understood. Progressive motility, which is a measurement of the movement of forward progression of sperm, is most closely linked to sperm quality, and the percentage of progressively motile sperm compared to control is therefore the parameter utilized during the work described in this paper. […]
We used an HTS screening platform to assess the motility of live human spermatozoa. The platform and its development are described in detail in Gruber et al. , and summarized below in brief. The platform was used to screen compound libraries specifically focusing on reduction in motility. Interesting compounds were examined in further detail as possible starting points for a medicinal chemistry program. The experimental design is illustrated in Figure .
Donors were local to the Dundee area, over the age of 18, and had no known fertility problems and normal sperm concentration, motility and semen characteristics according to WHO 2021 criteria. Special category personal data for donors, such as ethnic origin, was not recorded in accordance with ethical approval and UK GDPR. Samples were obtained by masturbation, after sexual abstinence of 2–5 days, and delivered to the research laboratory within one h of production. Samples were allowed to liquefy at 37 °C for 15–30 min prior to preparation by discontinuous density gradient centrifugation (DGC). […] A minimum of 3 prepared donor samples were routinely pooled to reduce donor-to-donor variability for primary screening assays. Pooled samples were incubated for 3 h at 37 °C under noncapacitating conditions.
In brief, screening batches of cells were transferred to a robotic platform (HighRes Biosolutions Inc.) and maintained during the screen at 37 °C at 5% CO2. Assay-ready 384-well plates containing compounds were prepared prior to the screen and filled with approximately 10,000 spermatozoa (20 μL) per well using a liquid handling system (MultiDrop Combi; ThermoFisher). These plates were incubated for 10 min prior to imaging. The HTS system utilized a Yokogawa CV7000 Cell Voyager high-throughput microscope to record time-lapse images from 2 positions in each well. An adaptation of a tracking algorithm, Trackpy v0.4.1 was utilized to track individual spermatozoa within each well and obtain kinematic parameters. Within the compound-test plates, DMSO was used as the vehicle control.
All steps were performed as previously described. , In summary, data from every compound well were normalized to those from in-plate DMSO controls (wells containing the same amount of DMSO as compound wells). Two positions were recorded in every well, and the average of those positions was used for calculating % of control (median value/DMSO median) × 100. Each plate contained 16 DMSO control wells. Median curvilinear velocity (VCL) was used as the primary readout for the NPSC Diversity Set screened at 6 μM, and percentage progressive motility (PM) was used for all other libraries screened. Hits from the primary screening were chosen based on the % change compared to the control. In these experiments, an RSM of ≥20% compared to negative controls (DMSO) was chosen as a cutoff for potential progression.
In a screening program of this scale, a significant number of compounds are likely to have a negative effect on sperm motility, but a number will show general toxicity. […]

HepG2 cells = assay: HepG2 cytotoxicity assay (resazurin, 72 h); assay type: cell-based, human; conditions: for EC50: Homo sapiens, HepG2, 72 h, read-out: HepG2 pEC50 (converted)
Source text: Our overarching aims for investigating our chemical series and deciding which ones had the potential for further progression were to achieve adequate potency in our motility assay, suitable solubility, and minimal cytotoxicity in HepG2 cells. This third point was often the most challenging, as multiple series had cytotoxicity in HepG2 cells. This observation is perhaps not surprising; many potential targets in sperm cells can also be found in somatic cells. Our cytotoxicity assay is run with an incubation time of 72 h, to give time for gross cytotoxic effects to become apparent.
Compound dilution curves were plated directly using a Labcyte Echo 550 acoustic dispenser (125 nL) in 384-well white clear-bottom plates (Greiner). HepG2 cells (ATCCHepG2 HB-8065) were cultured in minimum essential medium (supplemented with glutamax) with 10% FCS and plated (25 μL) using a WellMate dispenser ([…]) and incubated for 72 h. Doxorubicin was used as a positive control drug. Resazurin was then added to each well at a final concentration of 45 μM, and fluorescence was measured using a PHERAstar LS (BMG Labtech) after 4 h of further incubation (excitation of 528 nm and emission of 590 nm). Raw data were normalized to controls and expressed as % growth.
Figure S2: Concentration-response curves from high throughput HepG2 viability assay. Each compound was tested in duplicate and the curves of each replicate are shown. The reported values in the tables are an average of the 2 pEC50 values obtained. […]
determine 0% effect, positive control used to determine 100% effect).
Hit compounds 1a, 6b and 7a were repurchased from commercial suppliers including enamine and […]

Aqueous solubility = assay type: physicochemical
[1] = 10 min, 10 min incubation, reported <X (neg. log of top concentration) if largest reduction <70%, read-out: RSM pEC50 10 mins (converted)
[2] = 3 h incubation, reported <X if largest reduction <70%, read-out: RSM pEC50 3 hrs (converted)
[3] = 6 h incubation, reported <X if largest reduction <70%, read-out: RSM pEC50 6 hrs (converted)

| SMILES | EC50 (human sperm; [1]) [µM] | EC50 (human sperm; [2]) [µM] | EC50 (human sperm; [3]) [µM] | EC50 (HepG2 cells) [µM] | solubility (Aqueous solubility) [µM] | increase in potency in the sperm motility assay (human sperm; after 6 h incubation, compared with hit 2a) [log-unit] | increase in cytotoxicity against HepG2 cells (HepG2 cells; compared with hit 2a) [log] |
| --- | --- | --- | --- | --- | --- | --- | --- |
| CC(C)CNC(=O)Nc1nc(-c2ccccn2)cs1 [Compound 3l] | > 31.6 | > 31.6 | 7.94 | > 100 | 9.3 (≈ 2.57 µg/mL) |  |  |
| O=C(Nc1nc2cc(F)c(F)cc2s1)C1CC1 [Compound 4l] | > 31.6 | > 31.6 | > 31.6 | > 100 | 4 (≈ 1.02 µg/mL) |  |  |
| O=C(Nc1nc2c(F)c(F)ccc2s1)C1CC1 [Compound 4k] | > 31.6 | > 31.6 | > 31.6 | > 100 | 8.5 (≈ 2.16 µg/mL) |  |  |
| Oc1ccc(Nc2ccnc3cc(Cl)ccc23)cc1 [Compound 5e] | > 31.6 | > 31.6 | 0.316 | 79.4 | 3.5 (≈ 0.948 µg/mL) |  |  |
| Cc1ccc(Nc2cc(C)nn2-c2nc(C)cc(C)n2)cc1 [Compound 6b, 1-(4,6-Dimethylpyrimidin-2-yl)-3-methyl-N-(p-tolyl)-1H-pyrazol-5-amine] | > 31.6 | > 31.6 | 1.58 | > 100 | 1.1 (≈ 0.323 µg/mL) |  |  |
| Oc1ccc(Nc2ccnc3cc(Cl)ccc23)nc1 [Compound 5j] | > 31.6 | > 31.6 | > 31.6 | > 100 | 6.7 (≈ 1.82 µg/mL) |  |  |
| O=C(Nc1nc(-c2ccccc2)cs1)Nc1ccc(F)cc1F [Compound 3e] | > 31.6 | > 31.6 | > 31.6 | 50.1 | 0.24 (≈ 0.0795 µg/mL) |  |  |
| CN(c1ccccc1Nc1nc(Nc2ccc(CN3CCOCC3)cc2)ncc1Cl)S(C)(=O)=O [Compound 2d] | > 31.6 | 0.126 | 0.126 | 0.398 | 64 (≈ 32.2 µg/mL) | 1 | 1 |
| CC(C)CC(=O)Nc1nc2c(Cl)c(Cl)ccc2s1 [Compound 4e] | > 31.6 | 6.31 | 6.31 | > 100 | 4.5 (≈ 1.36 µg/mL) |  |  |
| O=C(Nc1nc2c(Cl)c(Cl)ccc2s1)c1ccccc1 [Compound 4g] | 10 | 3.98 | 3.98 | 100 | 0.6 (≈ 0.194 µg/mL) |  |  |
| COc1ccc(Cl)cc1C(=O)Nc1ccc(C#N)c(Cl)c1 [Compound 1j] | > 20 |  |  | > 100 | 0.19 (≈ 0.061 µg/mL) |  |  |
| NCCN(C(=O)c1ccc(F)cc1F)c1ccc(Cl)cc1 [Compound 1n] | > 31.6 | > 31.6 | > 31.6 | > 100 | 73 (≈ 22.7 µg/mL) |  |  |
| CS(=O)(=O)Nc1ccccc1Nc1nc(NC2CCOCC2)ncc1Cl [Compound 2f] | > 31.6 | > 31.6 | > 31.6 | 5.01 | 16 (≈ 6.37 µg/mL) |  |  |
| Oc1ccc(Nc2ccnc3cc(Cl)ccc23)cn1 [Compound 5i] | > 31.6 | > 31.6 | > 31.6 | > 100 | 220 (≈ 59.8 µg/mL) |  |  |
| CCN(CC)C(=O)c1cc(Nc2ccnc3cc(Cl)ccc23)ccc1O [Compound 5d] | > 31.6 | > 31.6 | > 31.6 | > 100 | 4.9 (≈ 1.81 µg/mL) |  |  |
